This is an account of results in patent EP1171440B1, “SUBSTITUTED-3-CYANO-[1.7],[1.5], AND [1.8]-NAPHTHYRIDINE INHIBITORS OF TYROSINE KINASES” (Wyeth Holdings Corporation, priority 1999, dated 2000).

Test [1] deals with LOX. In words: Inhibition of Cancer Cell Growth as Measured by Cell Number (Sulforhodamine B). Format: cell-based, Human. Particulars: 48 hours exposure. How it is done:
(§1) After 48 hours exposure to test compounds, cells were fixed with trichloroacetic acid, and stained with Sulforhodamine B. After washing with trichloroacetic acid, bound dye was solubilized in 10 mM Tris base and optical density was determined using a plate reader. Under conditions of the assay the optical density is proportional to the number of cells in the well. […] The test procedure is described in details by Philip Skehan et. al, J.Natl. Canc. […] The Her2Neu cell line is a 3T3 line that has bbeen transfected with Her2 receptor kinase.

Test [2] deals with A2780DDP. The test is described as above. The class given is cell-based, Human. Conditions: 48 hours exposure. How it is done:
as §1

Test [3] has as its system MDA435. The description is as above. Format: cell-based, Human. Particulars: 48 hours exposure. On the procedure:
as §1

The test system of test [4] is A2780S. Described as above. The class given is cell-based, Human. Particulars: 48 hours exposure. On the procedure: as §1
Test [5] deals with SKBR3. Described as above. The class given is cell-based, Human. On the procedure:
as §1

The test system of test [6] is A431. Described as above. Format: cell-based, Human. Particulars: 48 hours exposure. On the procedure: as §1
Test [7] has as its system SW620. The test is described as above. Format: cell-based, Human. On the procedure:
as §1

The target in test [8] is Mitogen Activated Protein Kinase (Mek-Erk) (Homo sapiens, UniProt P28482+Q02750). In words: Mitogen Activated Protein Kinase (MAPK) coupled MEK 1 / ERK2 assay. The class given is biochemical. Conditions: separate entries = evaluated more than one time. On the procedure: To evaluate inhibitors of the MAP (mitogen activated protein) kinase a two component coupled standard pharmacological test procedure, which measures phosphorylation of a serine/threonine residue in an appropriate sequence in the substrate in the presence and absence of a putative inhibitor, was used. Recombinant human MEK 1 (MAPKK) was first used to activate recombinant human ERK2 (MAPK) and the activated MAPK (ERK) was incubated with substrate (MBP peptide or MYC peptide) in the presence of ATP, Mg^+2 and radiolabeled ^33P ATP. The phosphorylated peptide was captured on a P 81 phosphocellulose filter (paper filter or embedded in microtiter plate) washed and counted by scintillation methods.
Sequence of Mitogen Activated Protein Kinase (Mek-Erk) (P28482 2-360): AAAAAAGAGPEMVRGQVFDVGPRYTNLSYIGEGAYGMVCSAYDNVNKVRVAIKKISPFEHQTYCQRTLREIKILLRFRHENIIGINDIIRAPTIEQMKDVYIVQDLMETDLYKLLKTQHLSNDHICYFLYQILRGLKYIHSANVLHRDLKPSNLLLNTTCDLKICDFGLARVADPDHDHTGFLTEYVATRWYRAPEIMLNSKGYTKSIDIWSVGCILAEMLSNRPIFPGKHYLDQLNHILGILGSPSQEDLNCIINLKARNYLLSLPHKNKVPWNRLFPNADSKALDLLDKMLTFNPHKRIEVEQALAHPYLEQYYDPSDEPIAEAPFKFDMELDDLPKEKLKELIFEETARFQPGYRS
Sequence of Mitogen Activated Protein Kinase (Mek-Erk) (Q02750 whole entry): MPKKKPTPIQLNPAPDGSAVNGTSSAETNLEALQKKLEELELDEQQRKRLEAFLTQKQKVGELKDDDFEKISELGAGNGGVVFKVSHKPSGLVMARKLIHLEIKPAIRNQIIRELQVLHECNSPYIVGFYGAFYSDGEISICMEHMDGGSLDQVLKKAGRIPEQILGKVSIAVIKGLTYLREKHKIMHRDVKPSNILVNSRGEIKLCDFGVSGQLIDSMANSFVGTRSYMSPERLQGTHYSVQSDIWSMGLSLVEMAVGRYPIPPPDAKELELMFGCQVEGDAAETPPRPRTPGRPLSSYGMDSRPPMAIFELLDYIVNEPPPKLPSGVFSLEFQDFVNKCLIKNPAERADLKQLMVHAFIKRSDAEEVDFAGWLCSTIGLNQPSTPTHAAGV
The peptide substrates used in the assay are MBP, peptide substrate ([…]), or synthetic Myc substrate, ([…]•5 TFA. The recombinant enzymes used were prepared as GST fusion proteins of human ERK 2 and human MEK 1. Inhibitor samples were prepared as 10X stocks in 10% DMSO and an appropriate aliquot was used to deliver either 10 ug/ml for a single point screening dose or 100, 10, 1, and 0.1 uM final concentration for a dose response curve. Final DMSO concentrations were less than or equal to 1%.
The reaction was run as follows in 50 mM Tris kinase buffer, pH 7.4 in a reaction volume of 50 ul. The appropriate volume of kinase buffer and inhibitor sample was added to the tube. Appropriate dilution of enzyme was delivered to give 2-5 ug recombinant MAPK (Erk ) per tube. The inhibitor was incubated with MAPK (Erk) for 30 min at 0 deg. C. Recombinant Mek (MAPKK) ( 0.5-2.5 ug) or fully activated Mek (0.05-0.1 units) was added to activate the Erk and incubated for 30 min at 30° C. Then substrate and gamma ^33P ATP was were added to give a final concentration of 0.5- 1 mM MBPP or 250-500 uM Myc; 0.2-0.5 uCi gamma ^33P ATP/tube; 50 µM ATP final concentration. Samples were incubated at 30°C for 30 minutes and the reaction was stopped by adding 25 µl of ice cold 10 %TCA. After samples were chilled on ice for 30 min, 20 µl of sample was transferred onto P 81 phosphocellulose filter paper or appropriate MTP with embedded P 81 filter. Filter papers or MTP were washed 2 times with a large volume of 1% acetic acid, then 2 times with water. The filters or MTP were briefly air dried before addition of scintillant and samples were counted in the appropriate scintillation counter set up for reading ^33P isotope. Samples included a positive control (activated enzyme plus substrate); a no enzyme control; a no substrate control; samples with different concentrations of putative inhibitor; and samples with reference inhibitors (other active compounds or non-specific inhibitors such as staurosporine or K252 B).
The raw data was captured as cpm. Sample replicates were averaged and corrected for background count. Mean cpm data was tabulated by group and % inhibition by a test compound was calculated as (corrected cpm control- corrected. cpm sample/control) X 100 = % inhibition. If several concentrations of inhibitor were tested, IC50 values (the concentration which gives 50% inhibition) were determined graphically from the dose response curve for % inhibition or by an appropriate computer program. The results obtained for representative compounds of this invention are listed in TABLE 3 where there may be separate entries for the same compound; this is an indication that the compound was evaluated more than one time.

Test [9] concerns the target T1, EGF-R Kinase (recombinant enzyme) (Homo sapiens, UniProt P00533).
T1 construct: containing the EGFR cDNA encoding amino acids 645 - 1186 preceded by Met-Ala-(His)6; made in house; host or cells: Sf9 insect cells infected with recombinant baculovirus vHcEGFR52
The test is described as follows: Inhibition of Epidermal Growth Factor Receptor Kinase (EGF-R) using recombinant enzyme, RR-SRC peptide phosphorylation with 33P-ATP. The class given is biochemical. Particulars: for IC50: recombinant His-tagged cytoplasmic domain of EGFR, RR-SRC peptide, 90 min at room temperature, read-out: IC50; for inhibition at 0.5 µM: 0.5 µM concentration of test compound, read-out: % Inhibition @ 0.5. On the procedure:
Representative test compounds were evaluated for their ability to inhibit the phosphorylation of the tyrosine residue of a peptide substrate catalyzed by the enzyme epidermal growth factor receptor kinase. […] The enzyme used in this assay is the His-tagged cytoplasmic domain of EGFR. A recombinant baculovirus (vHcEGFR52) was constructed containing the EGFR cDNA encoding amino acids 645 - 1186 preceded by Met-Ala-(His)6 . Sf9 cells in 100 mm plates were infected at an moi of 10 pfu/cell and cells were harvested 48 h post infection. A cytoplasmic extract was prepared using 1% Triton X-100 and applied to Ni-NTA column. After washing the column with 20 mM imidazole, HcEGFR was eluted with 250 mM imidazole (in 50 mM Na2HPO4, pH 8.0, 300 mM NaCl). Fractions collected were dialyzed against 10 mM HEPES, pH 7.0, 50 mM NaCl, 10% glycerol, 1ug/mL antipain and leupeptin and 0.1 mM Pefabloc SC. The protein was frozen in dry ice/methanol and stored -70° C.
Test compounds were made into 10 mg/mL stock solutions in 100% dimethylsulfoxide (DMSO). Prior to experiment, stock solutions were diluted to 500 uM with 100% DMSO and then serially diluted to the desired concentration with HEPES buffer (30 mM HEPES pH 7.4).
For the enzyme reaction, 10 uL of each inhibitor (at various concentrations) were added to each well of a 96-well plate. To this was added 3 uL of enzyme (1:10 dilution in 10mM HEPES, pH 7.4 for final conc. of 1:120). This was allowed to sit for 10 min on ice and was followed by the addition of 5 ul peptide (80 uM final conc.), 10ul of 4X Buffer (Table A), 0.25 uL ^33P-ATP and 12 uL H2O. The reaction was allowed to run for 90 min at room temperature and was followed by spotting the entire volume on to precut P81 filter papers. The filter discs were washed 2X with 0.5% phosphoric acid and radioactivity was measured using a liquid scintillation counter. Table A
The IC50 is the concentration of test compound needed to reduce the total amount of phosphorylated substrate by 50%. The % inhibition of the test compound was determined for at least three different concentrations and the IC50 value was evaluated from the dose response curve. […] CPM(control) is in units of counts per minute and was a number expressing the amount of radiolabeled ATP (γ-^33P) incorporated into the RR-SRC peptide substrate by the enzyme after 90 minutes at room temperature in the absence of test compound as measured by liquid scintillation counting. The CPM values were corrected for the background counts produced by ATP in the absence of the enzymatic reaction. Where it was possible to determine an IC50 value, this is reported in TABLE 1 otherwise the % inhibition at 0.5 µM concentration of test compound is shown in TABLE 1.

The target in test [10] is Epithelial Cell Kinase (ECK) (Homo sapiens, UniProt P29317). In words: Inhibition of Epithelial Cell Kinase (ECK), nonradioactive peptide phosphorylation plate assay. The class given is biochemical. Particulars: pH 7.2; multiple entries = tested multiple times. How it is done: In this standard pharmacological test procedure, a biotinylated peptide substrate is first immobilized on neutravidin-coated microtiter plates. The test drug, the Epithelial Cell Kinase (ECK), Mg^++, sodium vanadate (a protein tyrosine phosphatase inhibitor), and an appropriate buffer to maintain pH (7.2) are then added to the immobilized substrate-containing microtiter wells. ATP is then added to initiate phosphorylation. After incubation, the assay plates are washed with a suitable buffer leaving behind phosphorylated peptide which is exposed to horse radish peroxidase (HRP)-conjugated anti-phosphotyrosine monoclonal antibody. The antibody-treated plates are washed again and the HRP activity in individual wells is quantified as a reflection of degree of substrate phosphorylation. This nonradioactive format was used to identify inhibitors of ECK tyrosine kinase activity where the IC50 is the concentration of drug that inhibits substrate phosphorylation by 50%. Multiple entries for a given compound indication it was tested multiple times.
Sequence of Epithelial Cell Kinase (ECK) (P29317 24-976, species assumed): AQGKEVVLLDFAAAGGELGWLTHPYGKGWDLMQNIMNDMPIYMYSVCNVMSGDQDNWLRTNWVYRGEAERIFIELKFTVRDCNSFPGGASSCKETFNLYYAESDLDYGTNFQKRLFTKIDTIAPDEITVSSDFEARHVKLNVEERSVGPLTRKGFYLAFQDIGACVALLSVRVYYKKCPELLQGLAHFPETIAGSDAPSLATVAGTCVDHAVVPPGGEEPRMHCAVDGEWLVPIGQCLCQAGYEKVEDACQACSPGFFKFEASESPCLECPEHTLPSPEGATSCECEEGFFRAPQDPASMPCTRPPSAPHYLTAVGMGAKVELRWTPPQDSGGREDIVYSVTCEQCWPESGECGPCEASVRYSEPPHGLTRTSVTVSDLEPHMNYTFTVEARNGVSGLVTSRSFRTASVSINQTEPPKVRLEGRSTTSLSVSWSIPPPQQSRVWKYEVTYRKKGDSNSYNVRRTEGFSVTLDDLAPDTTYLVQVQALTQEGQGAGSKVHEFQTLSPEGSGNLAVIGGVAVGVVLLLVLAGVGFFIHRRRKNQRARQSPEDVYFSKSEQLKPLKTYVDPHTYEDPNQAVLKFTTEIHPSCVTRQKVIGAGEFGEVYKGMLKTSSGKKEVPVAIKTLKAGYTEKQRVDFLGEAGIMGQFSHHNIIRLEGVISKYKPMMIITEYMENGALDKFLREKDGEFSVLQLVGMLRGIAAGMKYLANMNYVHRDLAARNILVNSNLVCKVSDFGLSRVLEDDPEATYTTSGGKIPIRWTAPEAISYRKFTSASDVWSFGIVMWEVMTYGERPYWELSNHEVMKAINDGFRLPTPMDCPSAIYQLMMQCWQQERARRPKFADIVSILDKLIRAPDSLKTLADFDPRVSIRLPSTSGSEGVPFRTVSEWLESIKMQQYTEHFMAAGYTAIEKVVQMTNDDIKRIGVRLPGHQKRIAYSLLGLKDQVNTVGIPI

Setting [11] is: Homo sapiens, 48 h, read-out: IC50.
The mark [12] stands for this setting: Homo sapiens, MDA435, 48 h, read-out: IC50.
Setting [13] is: Homo sapiens, SK-BR-3, 48 hours exposure, read-out: IC50.
Setting [14] is: Homo sapiens, A-431, 48 h, read-out: IC50.
The mark [15] stands for this setting: Homo sapiens, SW-620, 48 hours exposure, read-out: IC50.

Values after ≈ are worked out from the molar mass of the structure shown. Like-named read-outs stand apart in the source and are kept apart here. A value given as a limit tells only on which side of the number the result lay.

T1 sequence (P00533 669-1210): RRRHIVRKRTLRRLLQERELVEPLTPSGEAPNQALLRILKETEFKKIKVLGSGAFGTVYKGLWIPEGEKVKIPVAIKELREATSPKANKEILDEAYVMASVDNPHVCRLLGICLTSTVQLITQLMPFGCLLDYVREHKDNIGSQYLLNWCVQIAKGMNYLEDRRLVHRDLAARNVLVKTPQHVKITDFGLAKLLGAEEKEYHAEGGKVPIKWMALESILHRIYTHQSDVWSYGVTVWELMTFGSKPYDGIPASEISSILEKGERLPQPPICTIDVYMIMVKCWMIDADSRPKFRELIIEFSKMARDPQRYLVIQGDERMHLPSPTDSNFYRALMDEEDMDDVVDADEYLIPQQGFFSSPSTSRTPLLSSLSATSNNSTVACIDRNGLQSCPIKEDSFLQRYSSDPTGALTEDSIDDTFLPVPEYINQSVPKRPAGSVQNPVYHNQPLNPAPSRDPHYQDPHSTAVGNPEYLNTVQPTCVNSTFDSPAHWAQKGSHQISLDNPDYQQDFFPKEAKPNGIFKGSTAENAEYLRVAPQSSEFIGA

As for “1-[4-(3-Bromo-phenylamino)-3-cyano-[1.7]naphthyridin-6-yl]-4-dimethylamino- pyridinium fluoride [Example 65]”, the concentration for half-maximal inhibition (IC50) is listed as 56 µg/mL in [1]; 52 µg/mL in [2]; 47 µg/mL in test [3]; 31 µg/mL in [4]; 41 µg/mL in [5] (48 hours exposure); 59 µg/mL in test [6]. Also, the IC50 in test [7] (48 hours exposure) is recorded as 42 µg/mL.
As for `CC#CC(=O)Nc1cnc2ncc(C#N)c(Nc3cccc(Br)c3)c2c1` [Example 24, But-2-ynoic acid [5-(3-bromo-phenylamino)-6-cyano-[1.8]-naphthyridin-3-yl]-amide], the IC50 in test [8] is over 100 µM; in [9], 0.1 µM; in test [10], 0.03 µM.
In the case of `Cc1ccc(Nc2c(C#N)cnc3ccc(OCCCN4CCOCC4)nc23)cc1O` [Example 43, 4-(3-Hydroxy-4-methyl-phenylamino)-6-(3-morpholin-4-yl-propoxy)-[1.5]naphthyridine-3-carbonitrile], the half-maximal inhibitory concentration (IC50) was over 100 µM in test [8], 1 µM in [9] and over 2.3 µM in [10]. Besides, the inhibition at 0.5 µM in [9] was determined as 37.1%.
Taken in the same sequence, the figures for `N#Cc1cnc2ccc(OCCCN3CCOCC3)nc2c1Nc1cccc(Br)c1` [Example 44, 4-(3-Bromo-phenylamino)-6-(3-morpholin-4-yl-propoxy)-[1.5]naphthyridine-3-carbonitrile] were over 100 µM, 1 µM, over 2.1 µM and 25.4%.
Consider `COc1ccc(CNc2cc3c(Nc4cccc(Br)c4)c(C#N)cnc3cn2)cc1` [Example 58, 4-(3-Bromo-phenylamino)-6-(4-methoxy-benzylamino)-[1.7]naphthyridine-3-carbonitrile], for which the IC50 in test [8] was over 100 µM; in test [2] (setting [11]) it was 1.8 µg/mL (≈ 3.91 µM); in test [3] (setting [12]) it was 2.4 µg/mL (≈ 5.21 µM); in test [4] (setting [11]), 1 µg/mL (≈ 2.17 µM); in [5] (setting [13]), 2.9 µg/mL (≈ 6.3 µM); in [6] (setting [14]) it was 0.4 µg/mL (≈ 0.869 µM). Further, the IC50 in [7] (setting [15]) is 4.1 µg/mL (≈ 8.91 µM); in test [9], over 0.1 µM.
In the case of `N#Cc1cnc2cnc(NCCN3CCOCC3)cc2c1Nc1cccc(Br)c1` [Example 63, 4-(3-Bromo-phenylamino)-6-(2-morpholino-4-yl-ethylamino)-[1.7]naphthyridine-3-carbonitrile], the IC50 in test [1] (Homo sapiens, read-out: IC50) was found to be 57 µg/mL (≈ 126 µM); in [2] (setting [11]), 0.8 µg/mL (≈ 1.76 µM); in [3] (setting [12]), 49 µg/mL (≈ 108 µM); in test [4] (setting [11]) it was 0.5 µg/mL (≈ 1.1 µM); in test [5] (setting [13]), 0.4 µg/mL (≈ 0.882 µM); in [6] (setting [14]), 0.5 µg/mL (≈ 1.1 µM). Moreover, the IC50 in test [7] (setting [15]) came out at 41 µg/mL (≈ 90.4 µM); in [9] it was 1 µM.
Regarding `N#Cc1cnc2cnc(F)cc2c1Nc1ccc(F)c(Cl)c1` [Example 69, 4-(3-Chloro-4-fluoro-phenylamino)-6-fluoro-[1.7]naphthyridine-3-carbonitrile], the IC50 in [10] was over 3.1 µM.

What is called IC50 is the point on the concentration scale where inhibition reaches its midpoint. For orientation: inhibition means the change of the read-out against control, counted positive when it falls.
